Measurements reported in patent US7666898B2, “Multivalent indole compounds and use thereof as phospholipase-A2 inhibitors” (Ilypsa, Inc., priority 2005, dated 2010).
pIC50: −log10 of the molar value. Like-named read-outs stand apart in the source and are kept apart here.

How the values were obtained:
[1] = target: T1, mouse group 1B PLA2 (mps PLA2) (Mus musculus, UniProt Q9Z0Y2); assay: Fluorimetric PLA2 inhibition assay, mouse (Example 8); format: biochemical
T1 construct: made in house; host or cells: E. coli
T1 sequence (Q9Z0Y2 23-146): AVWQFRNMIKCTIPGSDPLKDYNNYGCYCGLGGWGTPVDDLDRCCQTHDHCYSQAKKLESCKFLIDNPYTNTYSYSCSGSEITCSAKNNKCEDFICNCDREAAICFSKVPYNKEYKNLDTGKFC
Description: (§1) In this example, a fluorimetric assay procedure was used to evaluate the indole and indole-related compounds of the invention as inhibitors of group 1B phospholipase A2 (PLA2) from human, mouse and porcine.
(§2) In general, this assay used a phosphatidylmethanol substrate with a pyrene fluorophore on the terminal end of the sn-2 fatty acyl chain. Without being bound by theory, close proximity of the pyrenes from neighboring phospholipids in a phospholipid vesicle caused the spectral properties to change relative to that of monomeric pyrene. Bovine serum albumin was present in the aqueous phase and captured the pyrene fatty acid when it is liberated from the glycerol backbone owing to the PLA2-catalyzed reaction. […] The effect of a given inhibitor and inhibitor concentration on human, mouse and porcine phospholipase was determined.
(§3) Recombinant human and mouse group 1B PLA2 were cloned and expressed in E. coli as insoluble inclusion bodies. The inclusion bodies were isolated and purified by sonicating cell pellet in lysis buffer (50 mM Tris-HCl pH 7.0, 250 mM NaCl, 0.5% Triton 100), centrifugation at 12,000×g, and washing three times in washing buffer (20 mM Tris-HCl pH 7.0, 250 mM NaCl, 0.5% Triton 100). Then the inclusion bodies were dissolved in dissolving buffer (50 mM Tris-HCl pH 7.0, 250 mM NaCl, 6 M Guanidine-HCl, 1 mM DTT) and dialyzed four times against 10 volumes of refolding buffer (20 mM Tris-HCl pH 7.0, 250 mM NaCl, 0.5M Guanidine-HCl, 5% (w/w) Glycerol, 2 mM reduced glutathione and 0.4 mM oxidized glutathione) at 4° C. The correctly refolded proteins were concentrated using Amicon Stirred cell under nitrogen pressure (<70 psi) and dialyzed against 10 volumes of 50 mM Tris-HCl pH 7.0, 250 mM NaCl and 5% (w/w) glycerol. Human and mouse group 1B PLA2 were further purified by High S ion exchange and gel filtration columns.
(§4) The following reagents were prepared: • 1. PPyrPM stock solution (1 mg/ml) in toluene:isopropanol (1:1) • 2. […]
(§5) The following procedure was performed to evaluate the inhibitory potency of the evaluated compounds. • 1. […]

[2] = target: T2, human group 1B PLA2 (hps PLA2) (Homo sapiens, UniProt P04054); assay: Fluorimetric PLA2 inhibition assay, human (Example 8); format: biochemical
T2 construct: made in house; host or cells: E. coli
T2 sequence (P04054 23-148): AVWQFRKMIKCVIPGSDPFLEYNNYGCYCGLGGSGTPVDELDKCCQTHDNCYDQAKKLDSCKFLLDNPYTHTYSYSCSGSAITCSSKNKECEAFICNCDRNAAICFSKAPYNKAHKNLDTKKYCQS
Description: as §1, §2, §3, §4, §5

[3] = target: Porcine group 1 B phospholipase A2 (pps PLA2) (Sus scrofa, UniProt P00592); assay: Fluorimetric PLA2 inhibition assay, porcine (Example 8)
Chain of Porcine group 1 B phospholipase A2 (pps PLA2) (P00592 23-146): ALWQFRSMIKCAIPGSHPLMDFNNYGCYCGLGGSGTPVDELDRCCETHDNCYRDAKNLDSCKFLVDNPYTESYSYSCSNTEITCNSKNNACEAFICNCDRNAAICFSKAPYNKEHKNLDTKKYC
Description: as §1, §2
The following reagents and equipments were obtained from commercial vendors: • 1. Porcine group 1 B phospholipase A2 • 2. 1-hexadecanoyl-2-(1-pyrenedecanoyl)-sn-glycero-3-phosphomethanol (PPyrPM) • 3. Bovine serum albumin (BSA, fatty acid free) • 4. 2-Amino-2-(hydroxymethyl)-1,3-propanediol, hydrochloride (Tris-HCl) • 5. […]
as §5
Evaluated compounds were tested in duplicate and their values were averaged to plot the inhibition curve and calculate the IC50. […]

mouse PLA2 IB enzyme = mouse PLA2 IB enzyme (Mus musculus, UniProt Q9Z0Y2); conditions: pyrene substrate release from vesicles (Singer, Ghomashchi et al. 2002); read-out: IC50 versus the mouse PLA2 IB enzyme; cited from earlier work
Chain of mouse PLA2 IB enzyme (Q9Z0Y2 23-146): as the sequence (Q9Z0Y2 23-146) above

human PLA2 IB enzyme = human PLA2 IB enzyme (Homo sapiens, UniProt P04054); conditions: pyrene substrate release from vesicles (Singer, Ghomashchi et al. 2002); read-out: IC50 versus the human PLA2 IB enzyme; cited from earlier work
Chain of human PLA2 IB enzyme (P04054 23-148): as the sequence (P04054 23-148) above

[4] = system: C57BL/6 wild-type mice on high fat/high sucrose diabetogenic diet; assay: In-vivo evaluation in mice on high fat/high sucrose diabetogenic diet (Example 5); parameters: species or system mouse; conditions: for fasting glucose levels: low dose 25 mg/kg/day
Description: ILY-4001 (FIG. 2) was evaluated as a PLA2 IB inhibitor in a set of experiments using wild-type mice and genetically deficient PLA2 (−/−) mice (also referred to herein as PLA2 knock-out (KO) mice). In these experiments, wild-type and PLA2 (−/−) mice were maintained on a high fat/high sucrose diet, details of which are described below.
Briefly, four groups were set up, each having six mice. Three of the groups included six wild-type PLA2 (+/+) mice in each group (eighteen mice total), and one of the groups included six genetically deficient PLA2 (−/−) mice. One of the wild-type groups was used as a wild-type control group, and was not treated with ILY-4001. The other two wild-type groups were treated with ILY-4001—one group at a lower dose (indicated as “L” in Table 1) of 25 mg/kg/day, and the other at a higher dose (indicated as “H” in Table 1) of 90 mg/kg/day. The group comprising the PLA2 (−/−) mice was used as a positive control group.
The experimental protocol used in this study was as follows. The four groups of mice, including wild type and isogenic PLA2 (−/−) C57BL/J mice were acclimated for three days on a low fat/low carbohydrate diet. After the three day acclimation phase, the animals were fasted overnight and serum samples taken to establish baseline plasma cholesterol, triglyceride, and glucose levels, along with baseline body weight. The mice in each of the treatment groups were then fed a high fat/high sucrose diabetogenic diet (Research Diets D12331). 1000 g of the high fat/high sucrose D12331 diet was composed of casein (228 g), DL-methionine (2 g), maltodextrin 10 (170 g), sucrose (175 g), soybean oil (25 g), hydrogenated coconut oil (333.5 g), mineral mix S10001 (40 g), sodium bicarbonate (10.5 g), potassium citrate (4 g), vitamin mix V10001 (10 g), and choline bitartrate (2 g). This diet was supplemented with ILY-4001 treatments such that the average daily dose of the compound ingested by a 25 g mouse was: 0 mg/kg/day (wild-type control group and PLA2 (−/−) control group); 25 mg/kg/day (low-dose wild-type treatment group), or 90 mg/kg/day (high-dose wild-type treatment group). The animals were maintained on the high fat/high sucrose diet, with the designated ILY-4001 supplementation, for a period of ten weeks.
Body weight measurements were taken for all animals in all treatment and control groups at the beginning of the treatment period and at 4 weeks and 10 weeks after initiation of the study. (See Example 5A). Blood draws were also taken at the beginning of the treatment period (baseline) and at 4 weeks and 10 weeks after initiation of the study, in order to determine fasting glucose (See Example 5B). Cholesterol and triglyceride levels were determined from blood draws taken at the beginning of the treatment (baseline) and at ten weeks. (See Example 5C).

[5] = Pharmokinetic study of ILY-4001 (Example 6C); format: in vivo, mice; conditions: 30 mg/kg oral
Description: Bioavailability was calculated as a ratio of AUC-oral/AUC-intravenous (IV). To determine this ratio, a first set of subject animals were given a measured intravenous (IV) dose of ILY-4001, followed by a determination of ILY-4001 levels in the blood at various time points after administration (e.g., 5 minutes through 24 hours). Another second set of animals was similarly dosed using oral administration, with blood levels of ILY-4001 determined at various time points after administration (e.g., 30 minutes through 24 hours). The level of ILY-4001 in systemic circulation were determined by generally accepted methods (for example as described in Evans, G., A Handbook of Bioanalysis and Drug Metabolism. Boca Raton, CRC Press (2004)). Specifically, […]/mass spectrometry/mass spectrometry (LC/MS/MS) analytical methods were used to quantitate plasma concentrations of ILY-4001 after oral and intravenous administration. Pharmacokinetic parameters that were measured include Cmax, AUC, tmax, t1/2, and F (bioavailability).
In this procedure, ILY-4001 was dosed at 3 mg/kg IV and 30 mg/kg oral. […] This indicated about a 72% level of non-absorption of ILY-4001 from the GI tract into systemic circulation.

Caco-2 cells [6] = assay: In-vitro Caco-2 permeability study (Example 6B); conditions: Caco-2 monolayers, apical to basolateral
Description: (§6) Briefly, the human colon adenocarcinoma cell line, Caco-2, was used to model intestinal drug absorption.
(§7) In order to determine the compound permeability, Caco-2 cells (ATCC) were seeded into 24-well transwells (Costar) at a density of 6×10^4 cells/cm^2. Monolayers were grown and differentiated in MEM (Mediatech) supplemented with 20% FBS, 100 U/ml penicillin, and 100 ug/ml streptomycin at 37° C., 95% humidity, 95% air, and 5% CO2. The culture medium was refreshed every 48 hours. After 21 days, the cells were washed in transport buffer made up of HBSS with HEPES and the monolayer integrity was evaluated by measuring the trans-epithelial electrical resistance (TEER) of each well. […]
(§8) 150 ul samples were collected for LC/MS analysis from the basolateral well at 15 min, 30 min, 45 min, 1 hr, 3 hr, and 6 hr time points; replacing the volume with pre-warmed transport buffer after each sampling. The apparent permeabilities in cm/s were calculated based on the equation: Papp=(dQ/dt)×(1/C0)×(1/A) where dQ/dt is the permeability rate corrected for the sampling volumes over time, C0 is the initial concentration, and A is the surface area of the monolayer (0.32 cm^2). At the end of the experiment, TEER measurements were retaken and wells with readings below 350 ohm-cm^2 indicated diminished monolayer integrity such that the data from these wells were not valid for analysis.

Stability at low pH = format: physicochemical
[7] = Bioavailability study of Compound 5-24 (Example 9); format: in vivo, male CD-1 Mus Musculus mice; conditions: oral ˜30 mg/kg vs IV ˜3 mg/kg, mice
Description: Bioavailability was determined for Compound 5-24 (ILY-V-24) as follows. Generally, the bioavailability was calculated by comparing a timecourse of the concentration of the test compound in the serum of mice after an intra-venous (IV) dosing, versus the timecourse of the concertration following an oral dosing of the test compound. The IV dose was ˜3 mg/kg, the oral dose was ˜30 mg/kg.
Oral Formulation. The oral formulation was prepared as follows. To sterile flask, 90 ml of sterile Milli-Q water was added. 9 ml of PEG-400 was added (final concentration of 9%). 50 ul of Tween-80 was added (final concentration of 0.05%). 0.9 g of CMC was weighed and added (final concentration of 0.9% w/v). […]
Study Design. […] On study day 0, all the animals were weighed, dosages were calculated and the animals were dosed by oral route (PO) or (IV) as outlined below in Table 7. […]
Calculations. Bioavailabilty was calculated as follows. Individual doses were calculated based on an average of body weights taken on the day of dosing. Serum concentrations of test compound, as well as the actual concentration of dosing solutions, were measured using 2-dimensional Mass Spectrophotometry after Liquid Chromatography (LC MS/MS). […]

Caco-2 cells [8] = system: Caco-2 cells
Description: as §6, §7, §8

[9] = low and high doses (25 and 90 mg/kg/day), 10 weeks

2-(3-Aminooxalyl-1-{12-[3-aminooxalyl-4-(1-carboxy-2-methyl-propoxy)-2-methyl-indol-1-yl]-dodecyl}-2-methyl-1H-indol-4-yloxy)-3-methyl-butyric acid [ILY-v-44]
IC50 ([1]; PPyrPM vesicles, 37° C., read-out: ILYPSA IC50 (μM) mps PLA2): 0.48 µM | IC50 ([2]; PPyrPM vesicles, 37° C., read-out: ILYPSA IC50 (μM) hps PLA2): 0.28 µM | IC50 ([3]; read-out: ILYPSA IC50 (μM) pps PLA2, PPyrPM vesicles, 37° C.): 0.05 µM

Cc1c(C(=O)C(N)=O)c2c(OCC(=O)O)cccc2n1Cc1ccccc1-c1ccccc1 [ILY-4001, 2-(3-(2-amino-2-oxoacetyl)-1-(biphenyl-2-ylmethyl)-2-methyl-1H-indol-4-yloxy)acetic acid]
pIC50 (mouse PLA2 IB enzyme): ~6.82 | pIC50 (human PLA2 IB enzyme): ~6.70 | body weight gain ([4]; 25 mg/kg/d and 90 mg/kg/d in diet, week 4 and week 10, vs wild-type control group): significantly reduced body weight gains | plasma levels of cholesterol [4, 9]: substantially reduced | plasma levels of triglycerides [4, 9]: substantially reduced | fasting glucose levels ([4]; week four): moderately beneficial effect | fasting glucose levels ([4]; week ten): a beneficial effect was not observed | level of non-absorption from the GI tract into systemic circulation [5]: ~72% | apparent permeability (cm/s) (Caco-2 cells [6]): around 1.66×10^−7 cm/s | stability at low pH (Stability at low pH): stable at low pH

Cc1c(C(=O)C(N)=O)c2c(OCC(=O)O)cccc2n1CCCCCCCCSCCCCCCCCSCCCCCCCCn1c(C)c(C(=O)C(N)=O)c2c(OCC(=O)O)cccc21 [ILY-v-24, 2,2′-(1,1′-(8,8′-(Octane-1,8-diylbis(sulfanediyl))bis(octane-8,1-diyl))bis(3-(2-amino-2-oxoacetyl)-2-methyl-1H-indole-4,1-diyl))bis(oxy)diacetic acid]
bioavailability [7]: 4-8%

(3-Aminooxalyl-1-benzyl-2-methyl-1H-indol-4-yloxy)-phenyl-acetic acid [ILY-IV-32]
ILYPSA % inhibition at 15 μM mps PLA2 ([1]; 15 μM compound): 47.49% | ILYPSA % inhibition at 15 μM hps PLA2 ([2]; 15 μM compound): 41.73% | ILYPSA % inhibition at 15 μM pps PLA2 ([3]; 15 μM compound): 38.5%

Lucifer Yellow
apparent permeability (cm/s) (Caco-2 cells [8]): around 2.82×10^−7+/−0.37×10^−7 cm/s
